Laboratory results: patent US20060189539A1, “Novel GnRH analogues with antitumour effects and pharmaceutical compositions thereof” (priority 1994, published 2006)
Entries after “also recorded” stand apart in the source; their conditions may differ.

What was measured:
MDA-MB-231 xenograft = assay: In vivo antitumour effect on MDA-MB-231 xenograft; design: species or system immunosuppressed CBA/Ca mice; details: for Animals from 7 treated that became tumour-free: 6th week of treatment, 100 μg daily s.c.; for Tumour-free animals: end of the 6th week, first series
Protocol: (§1) The immunosuppression of mice was carried out by using the method of Steel et al. (1978).
(§2) CBA/Ca female mice of about 6 weeks old were thymectomized and then, after one week, they were irradiated with 60Co (whole body irradiation; the lethal dose is 9.5 Gray). Within 24 hours 3 to 5×10^5 myelocytes were injected to the animals. Beneath the skin of the immunosuppressed mice 2×10^7 tumour cells or, in the case of later passages, about 2 mm^3 of tumour cells or in the case of later, additional passages about 2 mm^3 of tumour pieces were implanted. […] The treatment with steroid hormone was stopped by at least one week before beginning the investigation.
(§3) Recent investigations have begun on 28 animals bearing MCF-7 xenograft .and on 28 animals bearing MDA-MB-231 xenograft. On animals bearing MCF-7 tumour the treatment was commenced in the 5th week following xeno-transplantation; the tumour volume was 205 to 225 mm^3. On animals bearing MDA-MB-231 tumour, the treatment was started in the 4th week after xeno-transplantation with a tumour volume of 140 to 150 mm^3. […] The control groups were daily treated with physiological saline s.c. (Each treated group consisted of 7 animals.)
A more recent study was started on 28 animals bearing. MDA-MB-231 xenograft. The treatment was begun in the 4th or 5th week following xenotransplantation. The tumour volume was 0.165 to 0.194 cm3. […] (For treatment of the control group, see the preceding Examples). Each group consisted of 7 animals.

ovulation of female rats = assay: Ovulation / cycle of female rats during treatment for three cycles; assay type: in vivo, rat; details: high dose of the coupled GnRH-III; three cycles observed
From the text: In 1993, researchers isolated and synthesized the Lamprey-III-GnRH decapeptide from lamprey (Petromyzon marinus) (p[…]NH2).
On comparison to healthy individuals, the functioning of the protective mechanism (immunostatus) of patients suffering from tumour is more unfavourable. Since the protective (immune) mechanism is enhanced by the compound, its tumour-inhibiting action can more strongly become valid. […] This effect may particularly be preferred on young patients suffering from mammary tumour, where a castration would cause psychic disturbances. In a way different from other conjugates, P-GFLG-GnRH-III gradually induces an inhibition of continually increasing grade during the long-lasting treatment for 7 weeks; and at the end of treatment, tumour-free animals are observed whereas in the case of other conjugates the degree of inhibition increases only up to the fifth week of treatment, then a stagnation in the grade of inhibition can be observed.

[1] = tested on: Ishikawa human endometrium tumour cells; details: 30 μM of active substance, conjugate, treated once
From the text: The procedure of treatment was as follows. After trypsinization the cells, 400,000 cells of MCF-7, MDA-MB-231 human mammary carcinoma, PC3 human prostate carcinoma or Ishikawa human endometrium tumour each were passed into Petri dishes of 10 cm in diameter. […]

[2] = Castration effect: uterus weight of xenograft-bearing animals; assay type: in vivo, mice
[3] = tested on: MDA-MB-231 human mammary carcinoma cell line; assay: Inhibition of colony formation (dose-survival), Example 18; assay type: cell-based; details: 50 μM
[4] = tested on: MCF-7 human mammary carcinoma cell line; assay: as above; assay type: cell-based; details: 50 μM
[5] = tested on: PC3 human prostate carcinoma cell line; assay: as above; assay type: cell-based; details: for Inhibition of colony formation: 30 to 50 μM
[6] = tested on: Ishikawa human endometrium carcinoma cell line; assay: as above; assay type: cell-based; details: for Inhibition of colony formation: 30 to 50 μM
[7] = tested on: MCF-7 human mammary carcinoma cell line; assay: Inhibition of colony formation (dose-survival), Example 48; assay type: cell-based; details: 10 μM
From the text: MCF-7 human mammary carcinoma cell line was stabilized in 1973 by Soule et al. from the pleural fluid of a patient suffering from mammary carcinoma. MDA-MB-231 human mammary carcinoma cell line was isolated and stabilized by Cailleau et al. in 1974 similarly from pleural fluid. Both cell lines grow in monolayer. […] MCF-7 cell line is estradiol receptor (ER)-positive containing proteins specifically binding GnRH. Thus, it represents, a useful model system for investigating the direct effect of GnRH mediated by the GnRH receptor. Being ER-negative and GnRH receptor-positive, MDA-MB-231 cell line is similarly suitable to study the direct effect of GnRH. PC3 human prostate carcinoma cell line was stabilized in cell culture by Kaighn et al. in 1979. The cells are of epithelial type and form compact colonies in clonogenic assays. The Ishikawa cell line originates from human endometrial adenocarcinoma [M. Nishida et al.: Acta Obstet. Gynecol. Jpn. 37, 1103-1111 (1985)], it is epithelial in its character and contains steroid-as well as GnRH receptors. The examination gives accurate information about the cell-damaging effect of the substance tested as a function of varying doses. The treatment was carried out once; the colonies formed from the surviving cells were counted after 8-12 days. […] A part of the arrested cells again entered the cycle, an other part of them might be destroyed (apoptosis). […] The treatment was once carried out 24 hours after setting, then the colonies formed were counted after 8-12 days. The cells were treated once after 24 hours with 1-50 μM of various GnRH analogues of Examples above or with 1-50 μM of GnRH-III, respectively. The percentages of inhibition obtained on MCF-7, MDA-MB-231, PC3 and Ishikawa cells, respectively, together with the dose of the active agent used are shown in Table VIII.

MCF-7 xenograft = assay: In vivo antitumour effect on MCF-7 xenograft; design: species or system immunosuppressed CBA/Ca mice; details: for Influence on the rate of tumour growth: first study, conjugates 150 μg in every 3rd day, P-GFLG-OH daily s.c. corresponding to 50 μg
Protocol: as §1, §2
In the case of MCF-7 tumours (xenografts) the examinations were carried out with passages being in the phase of the 37th and 38th, respectively, transplantations.
In the case of mice bearing MCF-7 xenograft, the treatment was begun in the 4th week following xeno-transplantation.
as §3

[8] = tested on: MDA-MB-231 human mammary carcinoma cells; assay: In vitro inhibition of cell proliferation (cell count), Example 19; assay type: cell-based; details: 30 μM of active substance, conjugate, treated once, cell count on 7th day
Protocol: (§4) The procedure of treatment was as follows. After trypsinization the cells, 400,000 cells of MCF-7, MDA-MB-231 human mammary carcinoma, PC3 human prostate carcinoma or Ishikawa human endometrium tumour each were passed into Petri dishes of 10 cm in diameter. Starting from the day following transfer, the cells were treated with the substances to be tested in solution prepared with the nutrient medium during the exponential growth phase. The cultures were treated with 1 to 50 μM (calculated for the total volume of the culture) of MI-1544 GnRH antagonist, MI-1892 chicken GnRH antagonist or SJ-1004 GnRH […] on the 7th day.

[9] = tested on: MCF-7 human mammary carcinoma cells; assay: as above; assay type: cell-based; details: 30 μM of active substance, conjugate, treated once, cell count on 7th day
Protocol: as §4

[10] = tested on: PC3 human prostate carcinoma cells; assay: as above; assay type: cell-based; details: 30 μM of active substance, conjugate, treated once
Protocol: The procedure of treatment was as follows. After trypsinization the cells, 400,000 cells of MCF-7, MDA-MB-231 human mammary carcinoma, PC3 human prostate carcinoma or Ishikawa human endometrium tumour each were passed into Petri dishes of 10 cm in diameter. Starting from the day following transfer, the cells were treated with the substances to be tested in solution prepared with the nutrient medium during the exponential growth phase. […]

T-lymphocytes = assay: Cellular immune response (rosette formation against BRBC antigen); assay type: in vivo, mice; details: dose not stated
From the text: The immunosuppressive side effect of cytostatics used in tumour therapy is commonly known. This effect can be compensated to a certain grade by various immunostimulants (endotoxin, levamisole). Polypeptides with much […] molecular weights (about 40,000 to 80,000) are also capable of protecting against immunosuppressive effect [Gal et al.: J. Biol. Resp. Modif. 5, 148-159 (1986)). The molecular weight of the novel polyanionic P-GFLG-OH macromolecule tested by us is about 10,000, that of MI-1892 is about 2000, i.e. relatively low; therefore, their immunostimulatory activity was unexpected.

MXT mouse mammary tumour = assay: In vivo antitumour effect on MXT mouse mammary tumour; design: species or system CBA/Ca mice; details: 75 μg/day/animal s.c.; day 17
Protocol: The MXT mouse mammary carcinoma contains ER and PgR proteins; furthermore, it contains also GnRH receptors; therefore, this in vivo tumor model is suitable for studying both the direct and indirect effects. The treatment of mice bearing MXT mammary tumour was commenced on the day following transplantation. […] The animals were daily treated in s.c. route starting from the day following transplantation of MXT mouse mammary tumour. […] MI-1544: 75 μg/day/animal; MI-1892: 75 μg/day/animal.

B-lymphocytes = assay: Humoral immune response (antibody production of B-lymphocytes); assay type: in vivo, mice; details: dose not stated
[11] = animals bearing MCF-7 xenografts, treatment for four weeks
[12] = animals bearing MDA-MB-231 xenografts, treatment for twelve weeks

## {Lys[n-poly(N-vinylpyrrolidone-co-maleic acid)-Gly-Phe-Leu-Gly-]}8,-GnRH-III [P-GFLG-GnRH-III]
MDA-MB-231 xenograft; 1 × 100 μg daily s.c., week 6
  Tumour volume: 0.40 cm3
MDA-MB-231 xenograft
  Animals from 7 treated that became tumour-free: 2
Ovulation of female rats
  Influence on the cycle of female rats (castration effect): not influenced

## Ac-D-Trp1,3,D-Cpa2,{D-Lys[n-poly-(N-vinylpyrrolidone-co-maleic acid)-Gly-Phe-Leu-Gly]}6. D-Ala10-GnRH [P-GFLG-1544]
[1]
  % Inhibition of cell division: 95%
[2]; [11]
  Decrease of uterus weight: 42%
[2]; [12]
  Decrease of uterus weight: 50%
MDA-MB-231 xenograft; 1 × 50 μg daily s.c., week 2
  Tumour volume: 0.21 cm3
MDA-MB-231 xenograft; 1 × 50 μg daily s.c., week 3
  Tumour volume: 0.24 cm3
  Tumour volume as control (%): 66%
MDA-MB-231 xenograft; 1 × 50 μg daily s.c., week 6
  Tumour volume: 0.36 cm3
MDA-MB-231 xenograft; 1 × 100 μg daily s.c., week 3
  Tumour volume as control (%): 65%
MDA-MB-231 xenograft
  Animals from 7 treated that became tumour-free: 1
  Tumour-free animals: A tumour-free animal was found
[3]
  % Inhibition of colony formation: 100%
[4]
  % Inhibition of colony formation: 100%
[5]; 10 μM
  % Inhibition of colony formation: 100%
[5]; 50 μM
  % Inhibition of colony formation: 100%
[5]
  Inhibition of colony formation: 100%
[6]
  Inhibition of colony formation: 100%
[7]
  % Inhibition of colony formation: 15%
MCF-7 xenograft; 1 × 50 μg, week 2
  Inhibition %: 30%
MCF-7 xenograft; 1 × 50 μg, week 6
  Inhibition %: 49%
  Tumour volume as control (%): 51%
MCF-7 xenograft
  Influence on the rate of tumour growth: not influenced
MCF-7 xenograft; repeated study, 6th week
  Tumour-free animals: a tumour-free animal was found
[8]
  % Inhibition of cell division: 45%
[9]
  % Inhibition of cell division: 58%
[10]
  % Inhibition of cell division: 68.5%

## Ac-D-Trp^1,3,D-Cpa^2,{Lys[n-poly(N-vinyl pyrrolidone-co-maleic acid)-Gly-Phe-Leu-Gly-]}5, [a-Asp(DEA)]6, D-Ala10-GnRH [P-GFLG-1892]
T-lymphocytes
  Effect on the cellular immune response (activity of T-lymphocytes against BRBC antigen): increased; also recorded: twofold
[1]
  % Inhibition of cell division: 91%
MXT mouse mammary tumour
  Tumour volume as control (%): 36%
[2]; [11]
  Decrease of uterus weight: 39%
[2]; [12]
  Decrease of uterus weight: 20%
MDA-MB-231 xenograft; 1 × 75 μg daily s.c., week 6
  Tumour volume: 0.33 cm3
MDA-MB-231 xenograft
  Tumour-free animals: A tumour-free animal was found
[5]
  Inhibition of colony formation: 100%
[6]; 30 μM
  % Inhibition of colony formation: 100%
[6]
  Inhibition of colony formation: 100%
B-lymphocytes
  Effect on the humoral immune response: strengthened; also recorded: immunostimulatory effect
MCF-7 xenograft; 1 × 50 μg, week 2
  Inhibition %: 30%
MCF-7 xenograft
  Influence on the rate of tumour growth: not influenced
[8]
  % Inhibition of cell division: 42%
[9]
  % Inhibition of cell division: 45%
[10]
  % Inhibition of cell division: 51%
